Test results as given in PMC9405123, “Design, Synthesis and Mechanistic Studies of Novel Isatin-Pyrazole Hydrazone Conjugates as Selective and Potent Bacterial MetAP Inhibitors” (Antibiotics, 2022).
Converted amounts (≈) assume the structure as drawn. Where two headings read alike, the source gives them in different places.

Legend:
EcMetAP1 = system: EcMetAP1; design: method as in PMID 15506752; conditions: Co(II) as the cofactor; cited from earlier work
P. aeruginosa [1] = assay: Growth inhibition screening (broth dilution); assay type: cell-based, Pseudomonas aeruginosa; conditions: Pseudomonas aeruginosa
Protocol: (§1) In vitro screening of the compounds (PS1–14) was performed to assess the antibacterial activity against three Gram-positive (Staphylococcus aureus, Enterococcus faecalis and Bacillus subtilis,) and three Gram-negative (Pseudomonas aeruginosa, Klebsiella pneumonia and Escherichia coli) bacterial strains using the standard NCCLS broth dilution assay. The study’s standard drugs were ciprofloxacin (CIP) and ampicillin (AMP). Compounds were dissolved in a polar solvent (DMSO) and distributed into a 96-well plate in 200 µL of nutrient broth medium, with a final concentration of the compounds […] in each well. The bacterial cells (about 2.5 × 10^5 cells/mL) were inoculated into each well and incubated at 37 °C overnight. After incubation, the growth was measured by turbidity of the culture at 590 nm by spectrophotometer.

JST68 = assay: MIC on environmental MDR isolate (microdilution); conditions: Escherichia coli
LG20 = assay: MIC on environmental MDR isolate (microdilution); conditions: Enterobacter, isolate LG20 Enterobacter sp.
JST63 = assay: MIC on environmental MDR isolate (microdilution)
SD5 = assay: MIC on environmental MDR isolate (microdilution); conditions: Escherichia coli, isolate SD5 E. coli
SH34 = assay: MIC on environmental MDR isolate (microdilution); conditions: Serratia marcescens
HK91 = assay: MIC on environmental MDR isolate (microdilution); conditions: Ralstonia
SH28 = assay: MIC on environmental MDR isolate (microdilution); conditions: Aeromonas caviae
SD6 = assay: MIC on environmental MDR isolate (microdilution); conditions: Escherichia coli, isolate SD6 E. coli
E. faecalis [2] = assay: Combination study with AMP or CIP
HK43 = assay: MIC on environmental MDR isolate (microdilution); conditions: Exiguobacterium mexicanum
B. subtilis [3] = assay: Minimum inhibitory concentration (broth dilution); assay type: cell-based; conditions: Bacillus subtilis, alone
E. coli [4] = assay: Combination study with AMP or CIP; conditions: combination PS9 + AMP
P. aeruginosa [5] = assay: Minimum inhibitory concentration (broth dilution); assay type: cell-based; conditions: Pseudomonas aeruginosa, alone
K. pneumoniae [6] = assay: Combination study with AMP or CIP
S. aureus [7] = assay: Minimum inhibitory concentration (broth dilution); assay type: cell-based; conditions: Staphylococcus aureus, alone
HK32 = assay: MIC on environmental MDR isolate (microdilution); conditions: Enterobacter cloacae
JST28 = assay: MIC on environmental MDR isolate (microdilution); conditions: Escherichia coli
JST71 = assay: MIC on environmental MDR isolate (microdilution); conditions: Enterobacter
E. coli [8] = assay: Minimum inhibitory concentration (broth dilution); assay type: cell-based, Escherichia coli; conditions: alone
JST78 = assay: MIC on environmental MDR isolate (microdilution); conditions: Escherichia coli
S. aureus [9] = assay: Growth inhibition screening (broth dilution); assay type: cell-based, Staphylococcus aureus; conditions: Staphylococcus aureus
Protocol: as §1

P. aeruginosa [10] = assay: Combination study with AMP or CIP; conditions: combination PS9 + AMP
LG71 = assay: MIC on environmental MDR isolate (microdilution); conditions: Enterobacter cloacae
HK1 = assay: MIC on environmental MDR isolate (microdilution)
LG51 = assay: MIC on environmental MDR isolate (microdilution); conditions: Escherichia coli
B. subtilis [11] = assay: Growth inhibition screening (broth dilution); assay type: cell-based, Bacillus subtilis; conditions: Bacillus subtilis
Protocol: as §1

K. pneumoniae [12] = assay: Minimum inhibitory concentration (broth dilution); assay type: cell-based, Klebsiella pneumonia; conditions: Klebsiella pneumoniae, alone, read-out: MIC
LG24 = assay: MIC on environmental MDR isolate (microdilution); conditions: Escherichia coli
LG33 = assay: MIC on environmental MDR isolate (microdilution); conditions: Enterobacter
HK41 = assay: MIC on environmental MDR isolate (microdilution); conditions: Enterobacter cloacae
E. coli [13] = assay: Growth inhibition screening (broth dilution); assay type: cell-based, Escherichia coli; conditions: Escherichia coli
Protocol: as §1

S. aureus [14] = assay: Combination study with AMP or CIP
K. pneumoniae [15] = assay: Growth inhibition screening (broth dilution); assay type: cell-based, Klebsiella pneumonia; conditions: Klebsiella pneumoniae
Protocol: as §1

E. faecalis [16] = assay: Minimum inhibitory concentration (broth dilution); assay type: cell-based; conditions: Enterococcus faecalis, alone
JST61 = assay: MIC on environmental MDR isolate (microdilution); conditions: Pantoea agglomerans
E. faecalis [17] = assay: Growth inhibition screening (broth dilution); assay type: cell-based, Enterococcus faecalis; conditions: Enterococcus faecalis
Protocol: as §1

LG1 = assay: MIC on environmental MDR isolate (microdilution)
[18] = system: human red blood cells (hRBCs); assay: Hemolytic activity; assay type: cell-based
Protocol: The compound PS9 was evaluated for hemolytic effect on human RBCs. In brief, RBCs suspension 10% (v/v) cleaned with 1 × PBS and resuspended again in 1 × PBS (pH 7.4). […] The samples were centrifuged and absorbance of the supernatant was taken at 415 nm to obtain the percentage of RBCs lysis. Triton X-100 with 1% (v/v) was used as a positive control. Percentage of RBCs lysis was calculated as:% RBCs lysis = (OD415nm sample − OD415nm PBS)/(OD415nm Triton X-100 1% − OD415nm PBS)(1)

Compound: O=C(Nc1nccs1)C(=O)NC1CCCC1 [A, N1-cyclopentyl-N2-(thiazol-2-yl)oxalamide]
- IC50 (EcMetAP1): 0.067 µM

Compound: CC1(C)S[C@@H]2[C@H](NC(=O)[C@H](N)c3ccccc3)C(=O)N2[C@H]1C(=O)O [AMP, ampicillin, reference compound]
- inhibition at 250 µg/mL (P. aeruginosa [1]): 100%
- MIC (JST68): 64 mg/L (≈ 183 µM)
- MIC (LG20): 32 mg/L (≈ 91.6 µM)
- MIC (JST63): 128 mg/L (≈ 366 µM)
- MIC (SD5): 32 mg/L (≈ 91.6 µM)
- MIC (SH34): 8 mg/L (≈ 22.9 µM)
- MIC (HK91): 8 mg/L (≈ 22.9 µM)
- MIC (SH28): 16 mg/L (≈ 45.8 µM)
- MIC (SD6): 1000 mg/L (≈ 2860 µM)
- MIC in Combination (E. faecalis [2]; combination PS6 + AMP): 0.50 mg/L
- MIC in Combination (E. faecalis [2]; combination PS9 + AMP): 0.5 mg/L
- MIC (HK43): 1020 mg/L (≈ 2930 µM)
- MIC (B. subtilis [3]): 0.25 mg/L (≈ 0.715 µM)
- MIC in Combination (E. coli [4]): 0.25 mg/L
- MIC (P. aeruginosa [5]): 1 mg/L (≈ 2.86 µM)
- MIC in Combination (K. pneumoniae [6]; combination PS6 + AMP): 0.25 mg/L
- MIC in Combination (K. pneumoniae [6]; combination PS9 + AMP): 0.5 mg/L
- MIC (S. aureus [7]): 0.25 mg/L (≈ 0.715 µM)
- MIC (HK32): 1020 mg/L (≈ 2930 µM)
- MIC (JST28): 1020 mg/L (≈ 2930 µM)
- MIC (JST71): 1020 mg/L (≈ 2930 µM)
- MIC (E. coli [8]; Escherichia coli, read-out: MIC): 1 mg/L (≈ 2.86 µM)
- MIC (E. coli [8]): 1 mg/L (≈ 2.86 µM)
- MIC (JST78): > 1020 mg/L
- inhibition at 250 µg/mL (S. aureus [9]): 100%
- MIC in Combination (P. aeruginosa [10]): 0.25 mg/L
- MIC (LG71): 512 mg/L (≈ 1470 µM)
- MIC (HK1): 256 mg/L (≈ 733 µM)
- MIC (LG51): 1020 mg/L (≈ 2930 µM)
- inhibition at 250 µg/mL (B. subtilis [11]): 100%
- MIC (K. pneumoniae [12]): 2 mg/L (≈ 5.72 µM)
- MIC (LG24): < 2 mg/L
- MIC (LG33): 8 mg/L (≈ 22.9 µM)
- MIC (HK41): 256 mg/L (≈ 733 µM)
- inhibition at 250 µg/mL (E. coli [13]): 100%
- MIC in Combination (S. aureus [14]; combination PS6 + AMP): 0.0625 mg/L
- MIC in Combination (S. aureus [14]; combination PS9 + AMP): 0.0625 mg/L
- inhibition at 250 µg/mL (K. pneumoniae [15]): 100%
- MIC (E. faecalis [16]): 16 mg/L (≈ 45.8 µM)
- MIC (JST61): 128 mg/L (≈ 366 µM)
- inhibition at 250 µg/mL (E. faecalis [17]): 100%

Compound: CO/N=C(\C(=O)N[C@@H]1C(=O)N2C(C(=O)O)=C(COC(C)=O)CS[C@H]12)c1csc(N)n1 [CTX, cefotaxime]
- MIC (JST68): 512 mg/L (≈ 1120 µM)
- MIC (LG20): 32 mg/L (≈ 70.3 µM)
- MIC (JST63): 128 mg/L (≈ 281 µM)
- MIC (LG1): 16 mg/L (≈ 35.1 µM)
- MIC (SD5): 1000 mg/L (≈ 2200 µM)
- MIC (SH34): 8 mg/L (≈ 17.6 µM)
- MIC (HK91): 8 mg/L (≈ 17.6 µM)
- MIC (SH28): < 2 mg/L
- MIC (SD6): 1000 mg/L (≈ 2200 µM)
- MIC (HK43): 1020 mg/L (≈ 2250 µM)
- MIC (HK32): 256 mg/L (≈ 562 µM)
- MIC (JST28): 8 mg/L (≈ 17.6 µM)
- MIC (JST71): 1020 mg/L (≈ 2250 µM)
- MIC (JST78): 128 mg/L (≈ 281 µM)
- MIC (LG71): 1020 mg/L (≈ 2250 µM)
- MIC (HK1): 128 mg/L (≈ 281 µM)
- MIC (LG51): 64 mg/L (≈ 141 µM)
- MIC (LG24): 64 mg/L (≈ 141 µM)
- MIC (LG33): 8 mg/L (≈ 17.6 µM)
- MIC (HK41): 32 mg/L (≈ 70.3 µM)
- MIC (JST61): 256 mg/L (≈ 562 µM)

Compound: Triton-X 100 [reference compound]
- hemolysis [18]: 100%
